Laboratory results: PubChem BioAssay (NCI)
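Method: 48-hour compound exposure of cells in 96-well plates, five concentrations, linear interpolation of endpoints. Here, GI50 denotes the concentration required for 50% inhibition of growth. TGI: total growth inhibition.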

How the values were obtained:
Assay in all cases: DTP human tumour cell line panel, 48 h
HCC-2998 colon = system: HCC-2998 colon
RPMI-8226 leukemia = system: RPMI-8226 leukemia
CAKI-1 renal = system: CAKI-1 renal
OVCAR-8 ovarian = system: OVCAR-8 ovarian
NCI/ADR-RES ovarian = system: NCI/ADR-RES ovarian
OVCAR-3 ovarian = system: OVCAR-3 ovarian
UACC-62 melanoma = system: UACC-62 melanoma
SF-295 CNS = system: SF-295 CNS
UO-31 renal = system: UO-31 renal
OVCAR-4 ovarian = system: OVCAR-4 ovarian
SF-539 CNS = system: SF-539 CNS

Row | SMILES | TGI (HCC-2998 colon) | TGI (RPMI-8226 leukemia) | TGI (CAKI-1 renal) | TGI (OVCAR-8 ovarian) | TGI (NCI/ADR-RES ovarian) | TGI (OVCAR-3 ovarian) | TGI (UACC-62 melanoma) | TGI (SF-295 CNS) | TGI (UO-31 renal) | TGI (OVCAR-4 ovarian) | TGI (SF-539 CNS) | GI50 (HCC-2998 colon) | GI50 (RPMI-8226 leukemia) | GI50 (CAKI-1 renal) | GI50 (OVCAR-8 ovarian) | GI50 (NCI/ADR-RES ovarian) | GI50 (OVCAR-3 ovarian) | GI50 (UACC-62 melanoma) | GI50 (SF-295 CNS) | GI50 (UO-31 renal)
1 | NC(CCP(=O)(O)CCC1C=CC=CC1)C(=O)O (centres undefined) | > 100 µM | > 100 µM | > 100 µM | > 100 µM | > 100 µM | > 100 µM | > 100 µM | > 100 µM | > 100 µM | > 100 µM | > 100 µM | – | – | – | – | – | – | – | – | –
2 | O=C(O)C1Cc2c([nH]c3ccccc23)C=N1 (centres undefined) | > 100 µM | > 100 µM | > 100 µM | > 100 µM | > 100 µM | > 100 µM | > 100 µM | > 100 µM | > 100 µM | > 100 µM | > 100 µM | – | – | – | – | – | – | – | – | –
3 | CC12CCC(C(=O)N3CC=CCC3)(OC1=O)C2(C)C (centres undefined) | > 100 µM | > 100 µM | > 100 µM | > 100 µM | > 100 µM | > 100 µM | > 100 µM | > 100 µM | > 100 µM | > 100 µM | > 100 µM | – | – | – | – | – | – | – | – | –
4 | COc1cc(C2=C(C#N)C(N)OC3=C2COc2ccccc23)cc(OC)c1OC (centres undefined) | 56.8 µM | > 100 µM | – | – | > 100 µM | 34.3 µM | > 100 µM | – | 12.7 µM | 45.7 µM | 50.5 µM | – | – | – | – | – | – | – | – | –
5 | Nc1ccc2c3c(n(CCCCl)c(=O)c2c1)-c1cc2c(cc1C3=O)OCO2 | > 100 µM | > 100 µM | > 100 µM | > 100 µM | > 100 µM | > 100 µM | > 100 µM | > 100 µM | > 100 µM | – | – | > 100 µM | > 100 µM | 1.03 µM | > 100 µM | > 100 µM | > 100 µM | > 100 µM | 0.349 µM | 48.1 µM
6 | CCC(=O)NC(Nc1ccc(O)cc1)(C(F)(F)F)C(F)(F)F | > 100 µM | > 100 µM | – | – | – | > 100 µM | > 100 µM | – | > 100 µM | – | > 100 µM | – | – | – | – | – | – | – | – | –
7 | COC(=O)c1ccc(N=NN(C)COc2ccc([N+](=O)[O-])cc2)cc1 | > 100 µM | > 95.3 µM | > 100 µM | > 100 µM | > 100 µM | > 100 µM | > 100 µM | > 100 µM | > 100 µM | > 100 µM | > 100 µM | – | – | – | – | – | – | – | – | –
8 | N=C(N)c1csc([C@@H]2O[C@H](CO)[C@@H](O)[C@H]2O)n1 | > 100 µM | > 100 µM | > 100 µM | > 100 µM | – | – | – | > 100 µM | > 100 µM | > 100 µM | > 100 µM | – | – | – | – | – | – | – | – | –
